The target of the assay is T1, Human PPARα (Homo sapiens, UniProt Q07869).
T1 construct: host or cells: proprietary non-human mammalian cells
T1 sequence (Q07869 1-468): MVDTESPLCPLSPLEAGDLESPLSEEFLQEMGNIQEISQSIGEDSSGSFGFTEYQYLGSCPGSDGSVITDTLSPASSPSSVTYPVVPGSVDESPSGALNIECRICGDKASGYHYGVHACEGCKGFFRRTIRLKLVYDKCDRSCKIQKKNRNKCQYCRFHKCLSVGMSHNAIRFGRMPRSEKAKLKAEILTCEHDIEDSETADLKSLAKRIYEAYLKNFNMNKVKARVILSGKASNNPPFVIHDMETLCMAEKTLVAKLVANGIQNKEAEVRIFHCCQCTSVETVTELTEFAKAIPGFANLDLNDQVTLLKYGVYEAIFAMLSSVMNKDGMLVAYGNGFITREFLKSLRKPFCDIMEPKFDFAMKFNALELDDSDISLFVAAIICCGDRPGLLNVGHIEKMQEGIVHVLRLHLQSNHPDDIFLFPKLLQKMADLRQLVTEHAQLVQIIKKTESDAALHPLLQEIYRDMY
The experiment in a line: Human PPARα Reporter Assay (luciferase). It is filed as cell-based. The settings on record: human PPARα reporter cells, overnight incubation, antagonism; read-out: Luciferase IC50. In a few lines:
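Non-human mammalian cells constitutively expressing human PPARα with a PPARα-responsive luciferase reporter were dosed with compounds right after plating. After overnight incubation, media removed and detection reagent added; luminescence taken as proportional to PPARα activation, agonist or antagonist mode.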
(In general: In a reporter assay the amount or activity of a reporter protein is the signal.)

Turning to `CCn1c(CCCc2ccc(-c3ccc(OC)c(C(=O)O)n3)cc2)nn(Cc2ccc(C(C)(C)C)cc2)c1=O` [Example 139, 6-(4-(3-(1-(4-(tert-Butyl)benzyl)-4-ethyl-5-oxo-4,5-dihydro-1H-1,2,4-triazol-3-yl)propyl)phenyl)-3-methoxypicolinic acid], the IC50 (commonly the concentration that gives 50% inhibition) came to 0.089 µM. Next, `CCn1c(CCCc2ccc(-c3ccc(OC)c(NS(=O)(=O)c4ccc(OC)cc4)n3)cc2)nn(Cc2ccc(C(C)(C)C)cc2)c1=O` [Example 93, 1-{[4-(tert-Butyl)phenyl]methyl}-4-ethyl-3-{3-[4-(5-methoxy-6-{[(4-methoxyphenyl)sulfonyl]amino}(2-pyridyl))phenyl]propyl}-1,2,4-triazolin-5-one]: 0.003 µM. Next, `CCn1c(CCCc2ccc(-c3cccc(CC(=O)O)c3)cc2)nn(Cc2ccc(C(C)(C)C)c(C)c2)c1=O` [Example 115, 2-(4′-(3-(1-(3-Methyl-4-(tert-butyl)benzyl)-4-ethyl-5-oxo-4,5-dihydro-1H-1,2,4-triazol-3-yl)propyl)-[1,1′-biphenyl]-3-yl) acetic acid]: 0.116 µM. The value for `CCCc1ccc(S(=O)(=O)Nc2ccc(-c3ccc(CCCc4nn(Cc5ccc(C(C)(C)C)cc5)c(=O)n4CC)cc3)nc2)cc1` [Example 71, 1-{[4-(tert-Butyl)phenyl]methyl}-4-ethyl-3-{3-[4-(5-{[(4-propylphenyl)sulfonyl]amino}(2-pyridyl))phenyl]propyl}-1,2,4-triazolin-5-one] was 0.865 µM; that for `CCn1c(CCCc2ccc(-c3cccc(CC(=O)NS(=O)(=O)c4ccccc4)c3)cc2)nn(Cc2ccc(C(C)(C)C)cc2)c1=O` [Example 8, 2-(4′-(3-(1-(4-(tert-Butyl)benzyl)-4-ethyl-5-oxo-4,5-dihydro-1H-1,2,4-triazol-3-yl)propyl)-[1,1′-biphenyl]-3-yl)-N-(phenylsulfonyl) acetamide] was 0.304 µM; that for `CCn1c(CCCc2ccc(-c3ccc(OC)c(CC(=O)O)c3)cc2O)nn(Cc2ccc(C(C)(C)C)cc2)c1=O` [Example 146, 2-(4′-(3-(1-(4-(tert-Butyl)benzyl)-4-ethyl-5-oxo-4,5-dihydro-1H-1,2,4-triazol-3-yl)propyl)-3′-hydroxy-4-methoxy-[1,1′-biphenyl]-3-yl) acetic acid] was 0.098 µM. For the compound `CCCOc1ccc(-c2ccc(CCCc3nn(Cc4ccc(C(C)(C)C)cc4)c(=O)n3CC)cc2)cc1C(=O)O` [Example 168, 4′-(3-(1-(4-(tert-Butyl)benzyl)-4-ethyl-5-oxo-4,5-dihydro-1H-1,2,4-triazol-3-yl)propyl)-4-propoxy-[1,1′-biphenyl]-3-carboxylic acid], the IC50 was determined as 0.009 µM. Next, `CCn1c(CCCc2ccc(-c3cccc(NS(=O)(=O)c4ccc(C(F)(F)F)cc4)n3)cc2)nn(Cc2ccc(C(C)(C)C)cc2)c1=O` [Example 82, 1-{[4-(tert-Butyl)phenyl]methyl}-4-ethyl-3-(3-{4-[6-({[4-(trifluoromethyl)phenyl]sulfonyl}amino)(2-pyridyl)]phenyl}propyl)-1,2,4-triazolin-5-one]: 0.181 µM; `CCC(C(=O)O)c1cccc(-c2ccc(CCCc3nn(Cc4ccc(C(C)(C)C)cc4)c(=O)n3CC)cc2)c1` (stereo not shown) [Example 46, 2-(3-{4-[3-(1-{[4-(tert-Butyl)phenyl]methyl}-4-ethyl-5-oxo-1,2,4-triazolin-3-yl)propyl]phenyl}phenyl)butanoic acid]: 0.699 µM. Next, `CCn1c(COCc2ccc(-c3cccc(CC(=O)O)c3)cc2)nn(Cc2ccc(C(C)(C)C)cc2)c1=O` [Example 27, 2-(4′(((1-(4-(tert-Butyl)benzyl)-4-ethyl-5-oxo-4,5-dihydro-1H-1,2,4-triazol-3-yl)methoxy)methyl)-[1,1′-biphenyl]-3-yl)acetic acid]: 2.17 µM; `CCn1c(CCCc2ccc(-c3ccc(OC)c(CC(=O)O)c3)c(C)c2)nn(Cc2ccc(C(C)(C)C)cc2)c1=O` [Example 157, 2-(4′-(3-(1-(4-(tert-Butyl)benzyl)-4-ethyl-5-oxo-4,5-dihydro-1H-1,2,4-triazol-3-yl)propyl)-4-methoxy-2′-methyl-[1,1′-biphenyl]-3-yl)acetic acid]: 0.094 µM; `CCn1c(CCCc2ccc(-c3ccc(NS(=O)(=O)c4ccccc4)c(OC)n3)cc2)nn(Cc2ccc(C(C)(C)C)cc2)c1=O` [Example 98, 1-{[4-(tert-Butyl)phenyl]methyl}-4-ethyl-3-[3-(4-{6-methoxy-5-[(phenylsulfonyl)amino](2-pyridyl)}phenyl)propyl]-1,2,4-triazolin-5-one]: 0.264 µM. The value for `CCn1c(CCCc2ccc(-c3ccc(OC)c(CC(=O)NS(C)(=O)=O)c3)cc2)nn(Cc2ccc(C(C)(C)C)cc2)c1=O` [Example 135, 2-(4′-(3-(1-(4-(tert-Butyl)benzyl)-4-ethyl-5-oxo-4,5-dihydro-1H-1,2,4-triazol-3-yl)propyl)-4-methoxy-[1,1′-biphenyl]-3-yl)-N-(methylsulfonyl)acetamide] was 0.192 µM; that for `CCn1c(CCCc2ccc(-c3cccc(N)c3)cc2)nn(Cc2ccc(C(C)(C)C)cc2)c1=O` [Example 6, 3-(3-(3′-Amino-[1,1′-biphenyl]-4-yl)propyl)-1-(4-(tert-butyl)benzyl)-4-ethyl-1H-1,2,4-triazol-5(4H)-one] was 0.255 µM; that for `CCn1c(CCCc2ccc(-c3ccc(C4(F)COC4)cn3)cc2)nn(Cc2ccc(C(C)(C)C)cc2)c1=O` [Example 191, 1-(4-(tert-Butyl)benzyl)-4-ethyl-3-(3-(4-(5-(3-fluorooxetan-3-yl)pyridine-2-yl)phenyl)propyl)-1H-1,2,4-triazol-5(4H)-one] was 0.041 µM. In the case of `CCCn1c(CCCc2ccc(-c3ccc(OCC)c(CC(=O)O)c3)cc2)nn(Cc2ccc(C(C)(C)C)cc2)c1=O` [Example 68, 2-(4′-(3-(1-(4-(tert-Butyl)benzyl)-5-oxo-4-propyl-4,5-dihydro-1H-1,2,4-triazol-3-yl)propyl)-4-ethoxy-[1,1′-biphenyl]-3-yl)acetic acid], the half-inhibitory concentration (IC50) is 0.032 µM. The value for `CCn1c(CCCc2ccc(-c3ccc(C(F)(F)F)c(C(=O)O)c3)cc2)nn(Cc2ccc(C(C)(C)C)cc2)c1=O` [Example 134, 4′-(3-(1-(4-(tert-Butyl)benzyl)-4-ethyl-5-oxo-4,5-dihydro-1H-1,2,4-triazol-3-yl)propyl)-4-(trifluoromethyl)-[1,1′-biphenyl]-3-carboxylic acid] was 0.109 µM. Next, `CCn1c(CCCc2ccc(-c3cc(OC)c(N)cn3)cc2)nn(Cc2ccc(C(C)(C)C)cc2)c1=O` [Example 111, 3-{3-[4-(5-Amino-4-methoxy(2-pyridyl))phenyl]propyl}-1-{[4-(tert-butyl)phenyl]methyl}-4-ethyl-1,2,4-triazolin-5-one]: 0.641 µM. The value for `CCn1c(CC2CC2c2ccc(-c3cccc(CC(=O)O)c3)cc2)nn(Cc2ccc(C(C)(C)C)cc2)c1=O` (stereo not shown) [Example 30, 2-(4′-(2-((1-(4-(tert-butyl)benzyl)-4-ethyl-5-oxo-4,5-dihydro-1H-1,2,4-triazol-3-yl)methyl)cyclopropyl)-[1,1′-biphenyl]-3-yl)acetic acid] was 1.28 µM. For `CCn1c(CCCc2ccc(-c3ccc(CC(=O)O)c(OC)c3)cc2)nn(Cc2ccc(C(C)(C)C)cc2)c1=O` [Example 199, 2-(4′-(3-(1-(4-(tert-Butyl)benzyl)-4-ethyl-5-oxo-4,5-dihydro-1H-1,2,4-triazol-3-yl)propyl)-3-methoxy-[1,1′-biphenyl]-4-yl)acetic acid], the concentration for half-maximal inhibition (IC50) amounted to 0.292 µM.

Consider `CCn1c(CCCc2ccc(-c3cccc(NC(=O)Nc4ccccc4)n3)cc2)nn(Cc2ccc(C(C)(C)C)cc2)c1=O` [Example 153, 1-(6-(4-(3-(1-(4-(tert-Butyl)benzyl)-4-ethyl-5-oxo-4,5-dihydro-1H-1,2,4-triazol-3-yl)propyl)phenyl)pyridin-2-yl)-3-phenylurea], for which the IC50 came out at 0.947 µM. The value for `CCn1c(CCCc2ccc(-c3cc(C(F)(F)F)cc(CC(=O)O)n3)cc2)nn(Cc2ccc(C(C)(C)C)cc2)c1=O` [Example 48, 2-(6-{4-[3-(1-{[4-(tert-Butyl)phenyl]methyl}-4-ethyl-5-oxo(1,2,4-triazolin-3-yl))propyl]phenyl}-4-(trifluoromethyl)-2-pyridyl)acetic acid] was 0.426 µM; that for `CCn1c(CCCc2ccc(-c3ccc(C(=O)C(=O)NC4CC4)cc3)cc2)nn(Cc2ccc(C(C)(C)C)cc2)c1=O` [Example 52, 2-(4′-(3-(1-(4-(tert-Butyl)benzyl)-4-ethyl-5-oxo-4,5-dihydro-1H-1,2,4-triazol-3-yl)propyl)-[1,1′-biphenyl]-4-yl)-N-cyclopropyl-2-oxoacetamide] was 0.44 µM.

Regarding `CCn1c(CCCc2ccc(-c3cc(C)c(NS(=O)(=O)Cc4ccccc4)cn3)cc2)nn(Cc2ccc(C(C)(C)C)cc2)c1=O` [Example 127, 1-{[4-(tert-Butyl)phenyl]methyl}-4-ethyl-3-{3-[4-(4-methyl-5-{[benzylsulfonyl]amino}(2-pyridyl))phenyl]propyl}-1,2,4-triazolin-5-one], the IC50 came out at 0.445 µM.

Take `CCn1c(CCCc2ccc(-c3csc(C4(F)COC4)n3)cc2)nn(Cc2ccc(C(C)(C)C)cc2)c1=O` [Example 201, 1-(4-(tert-Butyl)benzyl)-4-ethyl-3-(3-(4-(2-(3-fluorooxetan-3-yl)thiazol-4-yl)phenyl)propyl)-1H-1,2,4-triazol-5(4H)-one]: the half-inhibitory concentration (IC50) was 0.533 µM.

These data come from US9505728B2, “Triazolone compounds and uses thereof” (INCEPTION 2, INC., priority 2012, dated 2016).
